According to US7700553B2, “Selective inhibition of NF-κB activation by peptides designed to disrupt nemo oligomerization” (priority 2003, dated 2010):
Ends that are not written are not given here. Peptide text beside a SMILES is read from it. * marks the point of attachment. BODIPYFLEthylmaleimide = Cc1cc(C)n2c1C=C1C=CC(CCC(=O)NCCN3C(=O)CC(*)C3=O)=[N+]1[B-]2(F)F; BODIPY = not defined here; Cam = NC(=O)C*

Tests used:
[1] = system: lymphocytes B; assay: Cytotoxicity by MTS assay, microscope observation and FACS; settings: for Cytotoxicity MTS Assay: MTS cell proliferation assay (Promega); for cellular proportion of cell death by FACS: pre-B lymphocytes, 20 μM
[2] = system: 70Z/3-C3 cells; assay: FACS analysis of cellular uptake of BODIPY-labeled peptides; assay type: cell-based, murine; settings: 2 μM BODIPY-peptide, 2 h at 37° C.
Description: All experiments were performed in duplicates.
The uptake of BODIPY labeled NEMO peptides into living cells were monitored by fluorescence activated cell sorting (FACS) which is a conventional tool used to quantify cellular internalization.
Then present inventors next investigated the kinetic and concentration dependency of cellular uptake for the Ant-CC2 BODIPY peptide keeping in mind that the transduction of other NEMO peptides should occur in a similar fashion (FIGS. 2B and 2C).

[3] = system: human retinoblastoma cell lines Y79; assay type: cell-based; settings: for Y79 cell died: 5 μM
Description: FIG. 8: Cell Death Induced in the Retinoblastoma Cell Line Y79 by Ant-CC2 and Ant-LZ Peptides Rb cell line Y79 were treated with various concentration of the Ant-CC2 (WT) (filled squares) or Ant-CC2 (Mu) (open squares) (A), or Ant-LZ (WT) (filled circles), or Ant-LZ (Mu) (open circles) (B), or Ant peptide (open triangle) (C) for 3 hours (A, B) or 16 hours (C). Cell survival was then evaluated using the MTS assay as described in “Materials and methods”
The detection of cell death was performed using the MTS assay provided by Promega (CellTiter 96® AQueous one solution cell proliferation assay). Briefly, 0.3×10^6 Y79 cells in 450 μl were treated with 50 μl of the wild type Ant-CC2 and Ant-LZ peptides (0.1 to 20 μM) or their mutants Ant-CC2 (Mu), Ant-LZ (Mu) or the Ant or left untreated in serum-free RPMI medium at 37° C. After an incubation of […], an aliquot of the cell suspension (200 μl, 0.12×10^6 cells), was then transferee in 96-well plates and mixed with the MTS solution (40 μl) containing the MTS compound and the phenazine ethosulfate. Two hours after, the quantity of formazan produced by viable cells was measured using an automated microplate reader (Bio-TeK Instruments, INC) at 490 nm absorbance. Cell survival was observed under microscope and was estimated as a percentage of the value of untreated controls. The background of the reaction was determined by mixing the MTS solution with cell-free RPMI medium. To increase the sensitivity of the cell death assay, the present inventors used peptides devoid of BODIPY-labeling because the absorption spectra of the fluorophor overlaps with that of the formazan product. All experiments were repeated twice and each experiment condition was repeated in duplicate wells in each experiment.
Given that specific NF-κB inhibition may trigger apoptosis of cancer cells, the present inventors examined the effects of both cell-permeable Ant-LZ and Ant-CC2 peptides on human retinoblastoma cell viability. In these experiments, the present inventors used NEMO-derived polypeptides without a N-terminal BODIPY labeling to prevent any interference with the MTS assay (see “Materials and Methods”). […] The effect of the Ant-LZ peptide on cell death was stronger than that of the Ant-CC2. This induction of cell death was significant since Rb cell survival was 20% and 65% with the Ant-LZ and the Ant-CC2 peptides respectively when cancer cells were treated for 3 hours at a 20 μM concentration. […] In contrast, 80% and 55% of Y79 cell died in the presence of Ant-LZ and Ant-CC2 respectively at 5 μM concentration (FIG. 8C).

[4] = system: LPS-induced NF-κB activation in 70Z/3-C3 cells; assay: NF-κB inhibition assay, first procedure (NF-κB dependent β-galactosidase reporter, LPS stimulation); assay type: cell-based, murine; settings: for effect on LPS-induced NF-κB activation (in words): 20 μM peptide, 2 h, then 5 h LPS; for effect on LPS-induced NF-κB activation of peptides not fused to antennapedia (in words): 2 h peptide, then 3 h LPS (FIG. 3D)
Description: The resulting cell line, 70Z3-C3, was incubated for 2 hours in the absence or in the presence of 20 μM of antennapedia peptide (Ant), or BODIPY-labeled antennapedia peptide (BODIPY-Ant), or BODIPY-labeled antennapedia peptide coupled to CC2 (BODIPY-Ant-CC2) or LZ (BODIPY-Ant-LZ) peptides, After peptide internalization, cells were treated for 5 hours with LPS (3 μg/ml, (+) in left panel) or untreated (right panel and (−) in left panel) and the NF-κB activity was measured by β-galactosidase assay. […] Cells were treated as in (A) but with different concentration of peptide as indicated. The potential of each peptide to inhibit LPS-induced NF-κB activation was measured by determining the IC50 value that correspond to 50% inhibition of LPS-induced NF-κB activation as compared to the control (no peptide) (C). […] Control (no peptide) or CC2, or LZ peptides, with (BODIPY-ANT-CC2, BODIPY-ANT-LZ) or without the antennapedia sequence at the N-terminus (CC2, LZ) were incubated for 2 hours with 70Z3-C3 cells followed with (+) or without (−) the LPS-treatment for 3 hours. NF-κB activity was then measured by β-galactosidase assay.
In a first procedure 2.2×10^5 70Z/3-C3 cells in 220 μl of RPMI 1640 supplemented with 10% fetal calf serum (FCS) and 50 μM β-mercaptoethanol were placed in a 96-well plate and incubated with various concentrations of peptide (0 to 20 μM) at 37° C. in 5% CO2 incubator. After two hours an equal portion (100 μl) of each cell sample transferred in two wells containing each 10^5 cells. One aliquot of cells was then treated for 5 hours with lipopolysaccharides from Salmonella abortus (Sigma) at 0.5 μg/ml final concentration, and the other one left-treated. After 5 hours, cells were centrifuged at 400×g for 5 min at room temperature and the cell pellets were washed three times with cold PBS (250 μl) by centrifugation. Cells were then lysed in the lysis buffer (25 mM tris-phosphate buffer at pH 7.8 containing 8 mM magnesium chloride, 1 mM dithioerythreitol, 1% Triton X-100, 15% glycerol and a protease inhibitor mixture (Roche)), and samples were centrifuged at 4° C. for 20 min to clarify the lysate. The supernatant was then kept on ice, and 30 μl was then assayed to measure the β-galactosidase activity with a plate luminometer (Berthold) using the galacton-star as chemiluminescent substrate (BD Biosciences Clontech, Bronstein et al., 1989). Background of reaction was measured by mixing for 1 hour 30 μl of lysis buffer with the reaction buffer (196 μl) and the galacton-star substrate (4 μl) provided by BD Biosciences.

[5] = Kd and cooperativity indice of NLM peptides by Hill coefficient calculation; assay type: binding; settings: for Kd: Hill equation fit, read-out: dissociation constant Kd
Text: The present inventors compared NLM-DR to the corresponding NLM peptide by measuring the respective cooperativity indices, which evidence an advantage of NLM-DR mutated peptide over the wild-type.
The calculation of the “cooperativity indice” by means of Hill coefficient is based on the following formula Boundmax×L^n/(KD^n+L^n)
Boundmax is the maximum concentration of the bound ligand,
L is the concentration of the free ligand,
n is the cooperativity indice and
KD, is the affinity constant of the ligand by the protein.
If these values were to be compared to those obtained from the curves without accounting for cooperativity, the affinity of NLM-DR peptide would be 75 times higher than the affinity of wild-type NLM peptide.

[6] = longer treatment (FIG. 8C, 16 hours)

What does the source list for `CC[C@H](C)[C@H](NC(=O)[C@H](CC(=O)O)NC(=O)[C@H](C)NC(=O)[C@H](CCC(N)=O)NC(=O)[C@H](C)NC(=O)[C@H](CCCCN)NC(=O)[C@H](CC(C)C)NC(=O)[C@H](CCCNC(=N)N)NC(=O)[C@H](CCCNC(=N)N)NC(=O)[C@H](CCCNC(=N)N)NC(=O)[C@H](CCC(N)=O)NC(=O)[C@H](CCCNC(=N)N)NC(=O)[C@H](CCCNC(=N)N)NC(=O)[C@H](CCCCN)NC(=O)[C@H](CCCCN)NC(=O)[C@H](CCCNC(=N)N)NC(=O)CNC(=O)[C@H](Cc1ccc(O)cc1)NC(=O)[C@H](CSC1CC(=O)N(CCNC(=O)CCC2=[N+]3C(=Cc4c(C)cc(C)n4[B-]3(F)F)C=C2)C1=O)NC(C)=O)C(=O)N[C@@H](Cc1ccc(O)cc1)C(=O)N[C@@H](CCCCN)C(=O)N[C@@H](C)C(=O)N[C@@H](CCCNC(=N)N)C(=O)N[C@@H](Cc1ccccc1)C(=O)N[C@@H](CCC(N)=O)C(=O)N[C@@H](C)C(=O)N[C@@H](CCC(=O)O)C(=O)N[C@@H](CCCNC(=N)N)C(=O)N[C@@H](Cc1c[nH]cn1)C(=O)N[C@@H](C)C(=O)N[C@@H](CCCNC(=N)N)C(=O)N[C@@H](CCC(=O)O)C(=O)N[C@@H](CCCCN)C(N)=O` (stereo partly shown) [BODIPY-TAT-NLM-DR] (Ac-C(BODIPYFLEthylmaleimide)YGRKKRRQRRRLKAQADIYKARFQAERHAREK-NH2)?
Cytotoxicity Cell morphology FACS [1]: no; Cytotoxicity MTS Assay [1]: no; Cytotoxicity Cell morphology Microscope [1]: no

With “Ac-C(Cam)RQIKIWFQNRRMKWKKSKGMQLEDLRQQLQQAEEALVAKQELIDKLKEEAEQHKIV-NH2 [Ant-CC2]” as the compound, how does the “proportion of cells transduced” value [2] read?
The value was 100%.

And the Y79 cell died [3, 6]?
Its Y79 cell died is 55%.

And the “cellular proportion of cell death by FACS” value ([1]; absence of stimuli)?
Its value is 9%.

What about the “cellular proportion of cell death by FACS” value ([1]; after LPS stimulation) of the same compound?
Its value is 13%.

With “Ac-CRQIKIWFQNRRMKWKKLKAQADIYKADFQAERHAREKLVEKKEYLQEQLEQLQREFNKL-NH2 [Ant-LZ]” as the compound, how does the “proportion of cells transduced” value [2] read?
The value was 100%.

And the Y79 cell died [3, 6]?
The Y79 cell died was 80%.

What does the source list for “Ant-CC2 (Mu): mutant Ant-CC2 devoid of BODIPY-labeling (sequence of SEQ ID NO: 4) (Ac-CRQIKIWFQNRRMKWKKSKGMQLEDLRQQGQQAEEAGVAKQELGDKLKEEAEQHKIV-NH2; not fully specified (residue 1))”?
proportion of cells transduced [2]: 100%; induction of cell death (in words) ([3]; Y79 cells, 3 hours, mutant peptides): did not induce concentration cell death

With “Ant-LZ (Mu): mutant Ant-LZ devoid of BODIPY-labeling (sequence of SEQ ID NO: 8) (Ac-CRQIKIWFQNRRMKWKKLKAQADIYKADFQAERHAREKLVEKKEYSQEQLEQSQREFNKL-NH2; not fully specified (residue 1))” as the compound, how does the “proportion of cells transduced” value [2] read?
Its value is 100%.

Which “effect on LPS-induced NF-κB activation (in words)” value [4] does the source give for “Ant: third helix of the Antennapedia/penetratin protein, internalization peptide (SEQ ID NO: 1), without BODIPY label (CRQIKIWFQNRRMKWKK) [reference compound]” here?
The value was “same level of NF-κB activation as the control”.

And the “effect on cell survival (in words)” value ([3]; Y79 cells, longer treatment (FIG. 8C, 16 hours))?
Its value is “did not affect cell survival”.

Which “effect on LPS-induced NF-κB activation (in words)” value [4] does the source give for “B-CRQIKIWFQNRRMKWKK ({BODIPY}-CRQIKIWFQNRRMKWKK; reading uncertain) [BODIPY-Ant, reference compound]” here?
The value was “same level of NF-κB activation as the control”.

For “B-CRQIKIWFQNRRMKWKKLAQADIYKARFQAERHAREK (CRQIKIWFQNRRMKWKKLKAQADIYKARFQAERHAREK; not fully specified (N-terminus)) [BODIPY-Ant-NLM-DR]”, which “Cytotoxicity Cell morphology FACS” value [1] is on record?
The value was “+”.

And the “Cytotoxicity MTS Assay” value [1]?
The value was “no”.

And the “Cytotoxicity Cell morphology Microscope” value [1]?
Its value is “+”.

For “B-CRRRRRRRLKAQAKIYKARFQAERHAREK [BODIPY-R7-NLM-DR] (CRRRRRRRLKAQADIYKARFQAERHAREK; not fully specified (N-terminus))”, which “Cytotoxicity Cell morphology FACS” value [1] is on record?
Its value is “no”.

And the “Cytotoxicity Cell morphology Microscope” value [1]?
Its value is “no”.

Which “Cytotoxicity Cell morphology FACS” value [1] does the source give for “B-CRRRRRRRLKAQAKIYKARFQAERHAREK [BODIPY-R9-NLM-DR] (CRRRRRRRRRLKAQADIYKARFQAERHAREK; not fully specified (N-terminus))” here?
Its value is “no”.

What about the “Cytotoxicity MTS Assay” value [1] of the same compound?
Its value is “no”.

And the “Cytotoxicity Cell morphology Microscope” value [1]?
The value was “no”.

With “LKAQADIYKADFQAERHAREKLVEKKEYLQEQLEQLQREFNKL [LZ (WT)]” as the compound, how does the “effect on LPS-induced NF-κB activation of peptides not fused to antennapedia (in words)” value [4] read?
Its value is “same level of activation as the control”.

With LKAQADIYKARFQAERHAREK [NLM-DR] as the compound, how does the Kd [5] read?
The Kd was 170 µM.

What about the “affinity of NLM-DR peptide relative to wild-type NLM peptide” value ([5]; values compared without accounting for cooperativity) of the same compound?
The value was 75 times.

For “NLM: corresponding wild type NLM peptide covering the same 21 amino acid range as NLM-DR (LKAQADIYKADFQAERHAREK-NH2; not fully specified (N-terminus))”, which Kd [5] is on record?
Its Kd is 240 µM.

Which “effect on LPS-induced NF-κB activation of peptides not fused to antennapedia (in words)” value [4] does the source give for “SKGMQLEDLRQQLQQAEEALVAKQELIDKLKEEAEQHKIV [CC2 (WT)]” here?
Its value is “same level of activation as the control”.
